Results from ChEMBL document CHEMBL1201862, “PubChem BioAssay data set” (2004).
Active and inactive are the calls of the source.

Key:
[1] = biological target: T1, Eukaryotic translation initiation factor 4H (Homo sapiens, UniProt Q15056); assay: inhibitors of translation initiation factor eIF4H – SAR follow-up (AID 435011); type: functional
[2] = biological target: T2, Polyadenylate-binding protein 1 (Homo sapiens, UniProt P11940); assay: blockers of PABP interaction with poly(A) – biochemical, fluorescence polarization, […] (AID 2014)
T2 sequence (P11940 whole entry): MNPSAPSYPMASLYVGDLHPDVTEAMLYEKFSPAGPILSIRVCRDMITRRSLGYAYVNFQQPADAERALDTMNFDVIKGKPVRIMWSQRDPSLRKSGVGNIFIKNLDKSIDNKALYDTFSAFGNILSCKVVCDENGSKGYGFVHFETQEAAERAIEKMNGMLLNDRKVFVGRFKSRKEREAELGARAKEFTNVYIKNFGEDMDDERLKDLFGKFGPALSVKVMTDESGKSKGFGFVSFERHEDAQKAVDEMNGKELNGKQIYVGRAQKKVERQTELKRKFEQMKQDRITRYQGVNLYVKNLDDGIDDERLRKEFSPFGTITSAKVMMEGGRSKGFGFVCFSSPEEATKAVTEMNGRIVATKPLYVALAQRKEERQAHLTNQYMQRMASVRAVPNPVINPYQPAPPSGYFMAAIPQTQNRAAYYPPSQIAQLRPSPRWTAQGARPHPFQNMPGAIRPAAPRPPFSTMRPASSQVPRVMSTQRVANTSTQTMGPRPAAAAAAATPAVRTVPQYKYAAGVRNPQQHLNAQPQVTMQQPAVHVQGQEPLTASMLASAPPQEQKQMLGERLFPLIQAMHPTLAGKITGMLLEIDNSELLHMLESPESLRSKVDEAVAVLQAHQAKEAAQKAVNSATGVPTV

[3] = biological target: T2, Polyadenylate-binding protein 1; assay: PABP inhibition in translation initiation, SAR follow-up (AID 435018); type: functional
[4] = biological target: T1, Eukaryotic translation initiation factor 4H; assay: eIF4H binding inhibition – biochemical, uHTS, fluorescence polarization, translation initiation inhibitor project, primary screen (AID 2012)
[5] = biological target: T3, Carboxy-terminal domain RNA polymerase II polypeptide A small phosphatase 1 (Homo sapiens, UniProt Q9GZU7); assay: CTDSP1 inhibitors, concentration-response, biochemical, absorbance readout, ultra-high-throughput screen actives (AID 540297); type: functional
T3 sequence (Q9GZU7 whole entry): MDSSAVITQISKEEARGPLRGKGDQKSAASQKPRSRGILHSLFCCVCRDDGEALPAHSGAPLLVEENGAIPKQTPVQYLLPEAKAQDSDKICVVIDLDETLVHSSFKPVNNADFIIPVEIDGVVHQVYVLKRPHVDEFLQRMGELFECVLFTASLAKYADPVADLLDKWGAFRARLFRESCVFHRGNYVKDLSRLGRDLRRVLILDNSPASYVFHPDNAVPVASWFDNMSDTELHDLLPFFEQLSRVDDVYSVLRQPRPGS

[6] = biological target: T4, Type-1 angiotensin II receptor (Homo sapiens, UniProt P30556); assay: antagonism of angiotensin II type 1 receptor – cell-based, uHTS hits, selectivity assay for APJ receptor antagonist project, dose response (AID 463214); type: functional;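 further: antagonist potency against angiotensin II stimulated AT1 response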
T4 sequence (P30556 whole entry): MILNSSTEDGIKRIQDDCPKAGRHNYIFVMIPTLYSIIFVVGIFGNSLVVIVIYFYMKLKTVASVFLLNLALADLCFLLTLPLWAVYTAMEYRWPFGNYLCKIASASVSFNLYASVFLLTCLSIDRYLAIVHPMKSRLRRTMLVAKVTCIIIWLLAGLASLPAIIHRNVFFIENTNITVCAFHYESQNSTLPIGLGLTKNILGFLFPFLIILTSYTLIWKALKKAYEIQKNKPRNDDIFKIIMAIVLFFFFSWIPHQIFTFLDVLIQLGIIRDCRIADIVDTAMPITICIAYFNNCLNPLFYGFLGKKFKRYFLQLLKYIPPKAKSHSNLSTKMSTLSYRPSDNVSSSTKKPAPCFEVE

Beta-galactosidase [7] = biological target: T5, Beta-galactosidase (Escherichia coli, UniProt Q8VNN2); type: functional
T5 sequence (Q8VNN2 whole entry): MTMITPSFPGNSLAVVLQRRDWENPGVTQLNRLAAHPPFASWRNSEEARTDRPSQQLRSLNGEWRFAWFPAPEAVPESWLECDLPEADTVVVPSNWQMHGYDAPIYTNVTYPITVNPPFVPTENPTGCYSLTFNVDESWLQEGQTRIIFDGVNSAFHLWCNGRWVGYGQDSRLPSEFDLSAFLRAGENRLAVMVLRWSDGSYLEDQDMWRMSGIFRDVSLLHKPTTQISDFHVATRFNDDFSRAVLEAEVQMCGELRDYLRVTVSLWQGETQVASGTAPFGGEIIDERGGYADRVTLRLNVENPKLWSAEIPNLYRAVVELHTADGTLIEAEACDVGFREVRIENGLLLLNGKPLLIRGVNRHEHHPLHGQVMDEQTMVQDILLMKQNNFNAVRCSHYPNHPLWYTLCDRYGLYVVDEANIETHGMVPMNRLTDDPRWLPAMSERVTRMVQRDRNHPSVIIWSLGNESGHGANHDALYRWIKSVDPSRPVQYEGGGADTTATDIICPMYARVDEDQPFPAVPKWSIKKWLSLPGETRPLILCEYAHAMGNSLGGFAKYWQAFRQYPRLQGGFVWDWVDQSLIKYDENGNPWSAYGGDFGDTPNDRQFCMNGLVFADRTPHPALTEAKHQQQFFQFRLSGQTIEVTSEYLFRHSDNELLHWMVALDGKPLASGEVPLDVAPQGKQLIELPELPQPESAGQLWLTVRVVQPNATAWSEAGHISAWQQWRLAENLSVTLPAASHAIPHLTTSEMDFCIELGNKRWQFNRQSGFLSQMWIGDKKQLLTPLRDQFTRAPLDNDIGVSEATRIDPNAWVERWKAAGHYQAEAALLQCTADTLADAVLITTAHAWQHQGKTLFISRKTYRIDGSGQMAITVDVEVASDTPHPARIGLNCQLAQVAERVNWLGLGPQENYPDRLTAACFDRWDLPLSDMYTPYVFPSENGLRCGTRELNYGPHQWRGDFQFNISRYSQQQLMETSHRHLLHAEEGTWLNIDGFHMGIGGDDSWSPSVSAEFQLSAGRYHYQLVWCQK

[8] = HEK-293T viability loss after treatment – luminescence, T-cell screen hits, cytotoxicity control for TCR NF-kB inhibitor project, dose response (AID 489026); type: functional, cell-based;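 further: cells exposed to compound about 14 hours before the viability readout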
[9] = Luminescence-based dose response cell-based high throughput screening assay for cytotoxic compounds using the IEC-6 intestinal epithelial cell line. [Related pubchem assays: 1858 (Summary AID.), 1825 (Counterscreen.), 1907 (Confirmation screen.)]; type: functional
[10] = biological target: E3 ubiquitin-protein ligase Mdm2 (Homo sapiens, UniProt Q00987); assay: MDM2-luc reporter signal enhancers, multi-concentration potency testing, MDM2 ubiquitin-protein ligase inhibitor program, whole-cell format, luminescence detection, 384-well microplate (AID 1394); type: functional;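 further: MDM2 E3 inhibitors raise luminescence so EC50 is for signal enhancement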
E3 ubiquitin-protein ligase Mdm2, sequence (Q00987 whole entry): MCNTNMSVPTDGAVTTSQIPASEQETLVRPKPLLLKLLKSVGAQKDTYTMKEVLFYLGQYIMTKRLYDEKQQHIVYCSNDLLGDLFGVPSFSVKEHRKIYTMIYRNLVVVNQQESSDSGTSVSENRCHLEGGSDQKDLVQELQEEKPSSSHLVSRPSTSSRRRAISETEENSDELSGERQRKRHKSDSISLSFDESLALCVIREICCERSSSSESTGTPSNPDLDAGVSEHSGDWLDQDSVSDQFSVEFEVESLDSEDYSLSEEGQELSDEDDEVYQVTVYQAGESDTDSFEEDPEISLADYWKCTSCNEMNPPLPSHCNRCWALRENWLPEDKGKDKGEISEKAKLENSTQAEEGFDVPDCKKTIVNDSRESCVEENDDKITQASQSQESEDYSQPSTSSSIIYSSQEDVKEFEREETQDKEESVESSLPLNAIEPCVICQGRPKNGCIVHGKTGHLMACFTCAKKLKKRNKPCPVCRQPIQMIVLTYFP

[11] = biological target: T6, Kappa-type opioid receptor (Homo sapiens, UniProt P41145); type: functional
T6 sequence (P41145 whole entry): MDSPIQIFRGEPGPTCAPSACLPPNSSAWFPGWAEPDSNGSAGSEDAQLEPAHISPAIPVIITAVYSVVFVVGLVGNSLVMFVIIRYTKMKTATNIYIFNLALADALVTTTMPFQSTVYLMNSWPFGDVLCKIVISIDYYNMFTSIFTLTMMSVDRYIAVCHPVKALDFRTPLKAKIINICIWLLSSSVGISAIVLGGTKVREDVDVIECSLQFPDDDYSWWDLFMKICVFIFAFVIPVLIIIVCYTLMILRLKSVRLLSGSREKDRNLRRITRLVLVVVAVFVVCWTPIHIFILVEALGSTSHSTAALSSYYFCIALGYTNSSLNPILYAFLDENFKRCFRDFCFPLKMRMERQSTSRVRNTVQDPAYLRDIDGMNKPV

[12] = biological target: T6, Kappa-type opioid receptor; type: functional; remark: listed apart in the source
Beta-galactosidase [13] = biological target: T5, Beta-galactosidase; assay: PubChem AID 485352; type: functional
[14] = viability loss in THP-1 monocytes – THP-1 cells, cytotoxicity control for Vif-APOBEC3G degradation inhibitor project, dose response (AID 1117359); type: functional; settings: THP-1
[15] = viability loss in HEK293 kidney cells – cell-based, cherry-picks, set 5, cytotoxicity control, dose response (AID 1053117); type: functional
[16] = viability loss in HeLa cells – cytotoxicity control for MgcRacGAP inhibitor project, dose response (AID 624300); type: functional
Genome polyprotein = Genome polyprotein (dengue virus type 2, UniProt P29990); assay: flavivirus cap methylation enzyme inhibition – biochemical, confirmation dose response, primary screen (AID 588689); type: functional
Protein Tat = Protein Tat (Human immunodeficiency virus type 1 group M subtype B (isolate HXB2)(HIV-1), UniProt P04608); type: functional;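 further: tat binding to TAR RNA read out by fluorescence polarization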
Protein Tat, sequence (P04608 whole entry): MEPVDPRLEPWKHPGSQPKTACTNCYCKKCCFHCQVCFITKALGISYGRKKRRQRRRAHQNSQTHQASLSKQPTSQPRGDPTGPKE

[17] = general cell-killing toxicity readout – plate reader, dry powder samples, cytotoxicity control for PAX8 inhibitor project, dose response (AID 743021); type: functional, cell-based
[18] = biological target: T7, Rac GTPase-activating protein 1 (Homo sapiens, UniProt Q9H0H5); assay: blockers of MgcRacGAP-driven Rac1 GTP hydrolysis – biochemical, ADP Hunter fluorescence, primary and confirmatory, confirmation (AID 624330); type: functional
T7 sequence (Q9H0H5 whole entry): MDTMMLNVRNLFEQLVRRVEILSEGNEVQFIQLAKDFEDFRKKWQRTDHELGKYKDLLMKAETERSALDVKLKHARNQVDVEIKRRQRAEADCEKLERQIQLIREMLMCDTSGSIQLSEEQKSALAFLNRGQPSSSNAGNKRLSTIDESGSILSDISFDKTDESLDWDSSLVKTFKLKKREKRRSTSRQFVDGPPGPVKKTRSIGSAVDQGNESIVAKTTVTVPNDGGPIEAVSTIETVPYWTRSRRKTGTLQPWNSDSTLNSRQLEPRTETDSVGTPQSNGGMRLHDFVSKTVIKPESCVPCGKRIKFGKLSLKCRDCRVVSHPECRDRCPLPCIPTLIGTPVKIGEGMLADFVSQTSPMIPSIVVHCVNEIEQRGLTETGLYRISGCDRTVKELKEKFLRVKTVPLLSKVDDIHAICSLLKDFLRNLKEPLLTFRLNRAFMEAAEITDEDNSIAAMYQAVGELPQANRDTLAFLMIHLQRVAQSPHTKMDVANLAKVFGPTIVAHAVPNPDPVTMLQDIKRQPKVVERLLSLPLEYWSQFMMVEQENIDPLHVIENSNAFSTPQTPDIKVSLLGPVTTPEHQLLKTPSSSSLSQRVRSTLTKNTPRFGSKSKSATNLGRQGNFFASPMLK

[19] = viability loss in HepG2 hepatoma cells – cell-based, cherry-picks, set 5, cytotoxicity control, dose response (AID 1053118); type: functional
[20] = biological target: C-C chemokine receptor type 6 (Homo sapiens, UniProt P51684); assay: antagonism of CCR6 beta-arrestin recruitment – cell-based, luminescent beta-arrestin readout, dose response (AID 504728); type: functional
C-C chemokine receptor type 6, sequence (P51684 whole entry): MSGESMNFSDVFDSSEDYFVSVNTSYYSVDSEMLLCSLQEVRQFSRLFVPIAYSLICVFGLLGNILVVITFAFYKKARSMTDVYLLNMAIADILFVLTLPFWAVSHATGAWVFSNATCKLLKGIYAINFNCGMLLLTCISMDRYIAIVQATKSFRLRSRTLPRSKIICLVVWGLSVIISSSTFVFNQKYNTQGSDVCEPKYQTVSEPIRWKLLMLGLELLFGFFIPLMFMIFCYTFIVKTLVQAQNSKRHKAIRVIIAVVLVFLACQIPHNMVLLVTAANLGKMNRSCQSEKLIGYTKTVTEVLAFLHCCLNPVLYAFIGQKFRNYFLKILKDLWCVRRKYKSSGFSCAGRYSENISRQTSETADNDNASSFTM

Vero = assay: viability of Vero cells under compound – cytotoxicity control for flavivirus capping enzyme inhibitors (AID 588742); type: functional; settings: Chlorocebus sabaeus
[21] = viability loss in A549 lung cancer cells – cell-based, cherry-picks, […], cytotoxicity control, dose response (AID 1053119); type: functional
[22] = biological target: Heat shock protein HSP 90-alpha (Homo sapiens, UniProt P07900); type: functional, organism-based
Beta-galactosidase [23] = biological target: T5, Beta-galactosidase; assay: detection-enzyme interference by beta-gal modulators – biochemical, E. coli enzyme, set 3, artefact control for CCR6 antagonist project, dose response (AID 504712); type: functional
Paired box protein Pax-8 = Paired box protein Pax-8 (Homo sapiens, UniProt Q06710); assay: PAX8 transcriptional activity inhibition in RMG-I – RMG-I cells, luciferase, cherry-pick, dose response (AID 687027); type: functional, cell-based;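 further: luciferase reporter driven by Pax8 target thyroperoxidase promoter measured by SteadyGlo luminescence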
Paired box protein Pax-8, sequence (Q06710 whole entry): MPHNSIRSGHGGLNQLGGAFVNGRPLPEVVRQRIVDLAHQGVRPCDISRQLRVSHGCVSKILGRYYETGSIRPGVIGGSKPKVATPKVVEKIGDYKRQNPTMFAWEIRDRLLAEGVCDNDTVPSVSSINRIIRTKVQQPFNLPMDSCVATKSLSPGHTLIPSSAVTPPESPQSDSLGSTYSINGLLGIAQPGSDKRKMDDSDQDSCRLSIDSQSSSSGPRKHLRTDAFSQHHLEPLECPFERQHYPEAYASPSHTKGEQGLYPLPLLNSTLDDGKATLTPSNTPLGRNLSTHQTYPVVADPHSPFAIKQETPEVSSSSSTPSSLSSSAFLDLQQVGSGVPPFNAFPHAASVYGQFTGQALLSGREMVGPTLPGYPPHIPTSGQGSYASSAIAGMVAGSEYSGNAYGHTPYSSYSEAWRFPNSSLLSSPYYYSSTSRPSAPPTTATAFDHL

[24] = blockers of FN fibrillogenesis by fibroblasts – AH1F cells, Alexa488-FN fluorescence, cherry-picks, dose response (AID 1035475); type: functional, cell-based
[25] = biological target: T8, Dual specificity protein phosphatase 6 (Rattus norvegicus, UniProt Q64346); type: functional
T8 sequence (Q64346 whole entry): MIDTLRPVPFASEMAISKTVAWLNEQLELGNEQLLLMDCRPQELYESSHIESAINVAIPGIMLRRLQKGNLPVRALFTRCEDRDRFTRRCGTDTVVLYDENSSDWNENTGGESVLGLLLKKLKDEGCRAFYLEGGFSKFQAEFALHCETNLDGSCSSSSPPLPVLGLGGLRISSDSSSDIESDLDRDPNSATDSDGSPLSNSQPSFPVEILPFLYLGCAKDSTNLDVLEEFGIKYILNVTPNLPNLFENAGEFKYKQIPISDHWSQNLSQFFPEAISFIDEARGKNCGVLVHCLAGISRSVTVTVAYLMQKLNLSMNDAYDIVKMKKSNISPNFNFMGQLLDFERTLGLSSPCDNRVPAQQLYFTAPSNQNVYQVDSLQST

[26] = biological target: T9, Tyrosine-protein phosphatase non-receptor type 7 (Homo sapiens, UniProt P35236); assay: redox-active compounds inhibiting HePTP phosphatase – biochemical, fluorescence, mechanism study (AID 2068); type: functional
T9 sequence (P35236 whole entry): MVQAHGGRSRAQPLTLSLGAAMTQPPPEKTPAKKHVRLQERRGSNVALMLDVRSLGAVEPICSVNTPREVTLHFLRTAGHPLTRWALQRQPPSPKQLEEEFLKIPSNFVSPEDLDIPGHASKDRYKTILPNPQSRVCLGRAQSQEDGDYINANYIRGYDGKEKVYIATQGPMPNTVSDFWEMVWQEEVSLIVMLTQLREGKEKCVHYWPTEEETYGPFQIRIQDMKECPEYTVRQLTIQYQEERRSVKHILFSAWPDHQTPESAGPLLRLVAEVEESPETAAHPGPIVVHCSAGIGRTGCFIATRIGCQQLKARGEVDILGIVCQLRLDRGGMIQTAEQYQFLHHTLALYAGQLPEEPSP

[27] = biological target: T10, Dual specificity protein phosphatase 3 (Homo sapiens, UniProt P51452); assay: MOA VHR1 Fluorescent secondary assay for identification of redox-state modulating compounds. [Related pubchem assays (depositor defined):AID1654, AID1661, AID1878, AID1957]
T10 sequence (P51452 whole entry): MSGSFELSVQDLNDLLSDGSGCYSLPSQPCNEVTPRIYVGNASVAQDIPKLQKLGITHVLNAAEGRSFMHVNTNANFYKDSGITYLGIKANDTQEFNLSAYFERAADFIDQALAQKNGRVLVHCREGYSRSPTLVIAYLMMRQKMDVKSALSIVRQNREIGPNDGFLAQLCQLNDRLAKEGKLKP

[28] = biological target: T9, Tyrosine-protein phosphatase non-receptor type 7; type: functional
[29] = biological target: Glyceraldehyde-3-phosphate dehydrogenase (Homo sapiens, UniProt P04406)
Glyceraldehyde-3-phosphate dehydrogenase, sequence (P04406 whole entry): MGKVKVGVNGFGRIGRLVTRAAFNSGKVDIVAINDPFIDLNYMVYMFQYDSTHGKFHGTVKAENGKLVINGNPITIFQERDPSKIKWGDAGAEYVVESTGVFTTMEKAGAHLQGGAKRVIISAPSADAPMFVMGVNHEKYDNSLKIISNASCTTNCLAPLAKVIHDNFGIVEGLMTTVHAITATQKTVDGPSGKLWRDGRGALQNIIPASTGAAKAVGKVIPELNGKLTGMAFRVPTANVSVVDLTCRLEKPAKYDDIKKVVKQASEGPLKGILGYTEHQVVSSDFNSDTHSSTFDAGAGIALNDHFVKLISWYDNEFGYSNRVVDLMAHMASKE

[30] = biological target: T10, Dual specificity protein phosphatase 3; assay: SAR VHR1 Fluorescent Assay for In Vitro dose response studies. [Related pubchem assays (depositor defined):AID1654, AID1661, AID1878, AID1992, AID2004, AID2070, AID2085]; type: functional
[31] = biological target: T8, Dual specificity protein phosphatase 6
[32] = HRAS-V12 fibroblast viability reduction – cell-based, Alamar Blue, dry powder, Ras selective lethality project, primary screen (AID 493045); type: functional; settings: BJeLR
[33] = BJeH cell viability loss – BJeH cells, dry powder, counter-screen for Ras selective lethality project, dose response (AID 493054); type: functional, cell-based
[34] = BJeHLT cell viability loss – BJeHLT cells, dry powder, counter-screen for Ras selective lethality project, dose response (AID 493052); type: functional, cell-based; settings: Homo sapiens
[35] = DRD BJ cell killing, Ras synthetic lethality – DRD BJ fibroblasts, HRASV12, dry powder, dose response (AID 493049); type: functional, cell-based

CC(C)c1ccc(OC(=O)c2cccc(S(=O)(=O)N3CCN(C)CC3)c2)cc1
IC50 [1]: 27.6 µM (active) | IC50 [2]: 6.93 µM (active) | IC50 [3]: 15.7 µM (active) | IC50 [4]: > 100 µM (inactive) | IC50 [5]: 11.6 µM (active)

COc1ccc(C[S+]([O-])/C(Cl)=C(/Cl)C(=O)Nc2ccc(OC)nc2)cc1 (centres undefined)
IC50 [6]: 2.92 µM (active) | EC50 (Beta-galactosidase [7]): > 31.5 µM (inactive) | IC50 [8]: 31.5 µM (inactive) | IC50 [9]: 1.65 µM (active) | EC50 [10]: 0.56 µM (active) | IC50 [11]: 8.26 µM | IC50 [12]: 5.22 µM (active) | EC50 (Beta-galactosidase [13]): > 40 µM (inactive)

CC1OC(CC(=O)O)CC2=C1C(=O)c1c(O)cccc1C2=O (centres undefined) [NANAOMYCIN]
CC50 [14]: 0.69 µM (active) | AC50 [15]: 2.5 µM (active) | CC50 [16]: 5.86 µM (active) | IC50 (Genome polyprotein): 5.04 µM (active) | IC50 (Protein Tat): > 100 µM (active) | AC50 [17]: 3.45 µM (active) | IC50 [18]: 76.4 µM (active) | AC50 [19]: 0.37 µM (active) | IC50 [20]: > 66.6 µM (inactive) | CC50 (Vero): 0.72 µM (active) | AC50 [21]: 0.485 µM (active) | AC50 [22]: 0.262 µM (active) | IC50 (Beta-galactosidase [23]): > 66.6 µM (inactive) | AC50 (Paired box protein Pax-8): 0.469 µM (active) | AC50 [24]: 0.779 µM (active)

O=C(O)c1ccc(-c2ccc(/C=c3\sc4nc5ccccc5n4c3=O)o2)cc1
IC50 [25]: 6.59 µM (active) | IC50 [26]: 5.78 µM (active) | IC50 [27]: 6.21 µM (active) | IC50 [28]: 3.26 µM (active) | IC50 [29]: > 100 µM (not active) | IC50 [30]: 33.5 µM (active) | IC50 [31]: 8.6 µM (active)

COc1ccc(N(C(=O)CCl)C(C(=O)NCCc2ccccc2)c2nc(C)cs2)cc1Cl (centres undefined)
AC50 [32]: 8.26 µM (active) | AC50 [33]: 32.7 µM (active) | AC50 [34]: 19.8 µM (active) | AC50 [35]: 8.54 µM (active)
